Test results published in patent publication US20250353873A1, “COMPOUNDS AND METHODS FOR MODULATING APOE EXPRESSION” (Ionis Pharmaceuticals, Inc., priority 2024, published 2025).
Strand notation (5' to 3'): a small letter for the sugar, then the base; units joined by * are phosphorothioate-linked, units joined directly phosphodiester-linked; [ ] holds rarer units or linkages, { } end groups; capitals alone tell only the bases. [ms] = mesyl phosphoramidate linkage; e = 2'-O-(2-methoxyethyl) (MOE); k = constrained ethyl (cEt); [5mC] = 5-methylcytosine; d = 2'-deoxy (DNA)

Experiments:
[1] = tested on: human APOE RNA; assay: Activity in APOE C57BL/6NTac-Apoeem7250 knock-in mice, single ICV bolus, 8 weeks (Example 11); format: in vivo; conditions: single ICV bolus 300 μg, 8 weeks post treatment, normalized to mouse Ppia
Protocol: (§1) Modified oligonucleotides described above were tested in the APOE C57BL/6NTac-Apoeem7250 knock-in mouse model described above.
Each mouse received a single ICV bolus of 300 μg of modified oligonucleotide. A group of 3-4 mice received a single ICV bolus with PBS as a negative control.
(§2) Eight weeks post treatment, mice were sacrificed and RNA was extracted from cortical brain tissue and spinal cord for quantitative real-time RT-PCR analysis of RNA expression of APOE using human primer probe set RTS3073 (described herein above). APOE RNA levels were normalized to mouse Ppia. Mouse Ppia was amplified using primer probe set m_cyclo24 (described herein above). Results are presented as percent human APOE RNA relative to the amount of human APOE RNA in PBS treated animals, (% control). Each experiment is identified in separate tables below.

[2] = tested on: human APOE RNA; assay: Activity in APOE C57BL/6NTac-Apoeem7250 knock-in mice, single ICV bolus, 16 weeks (Example 12); format: in vivo; conditions: single ICV bolus 300 μg, 16 weeks post treatment, normalized to mouse Ppia
Protocol: as §1
APOE C57BL/6NTac-Apoeem7250 knock-in mice were divided into groups of 3-4 mice each. Each mouse received a single intracerebroventricular (ICV) bolus of 300 μg of modified oligonucleotide. A group of 4 mice received a single ICV bolus with PBS as a negative control.
as §2, with “Sixteen” for “Eight”, “using” for “using human”

Substance | APOE RNA (% control) Cortex [1] [% control] | APOE RNA (% control) Spinal Cord [1] [% control] | APOE RNA (% control) Cortex [2] [% control] | APOE RNA (% control) Spinal Cord [2] [% control]
1810069: mixed MOE/cEt gapmer CTTGGTGAATCTTTATTAAAC, sugar eeeeekddddddddddeeeee, linkages zsossszzzssssszsoosz (e[5mC][ms]eT*eTeG*eG*kT*dG[ms]dA[ms]dA[ms]dT*d[5mC]*dT*dT*dT*dA[ms]dT*eTeAeA*eA[ms]e[5mC]) [compound 1810069] | 24 | 27 | – | –
1809744: mixed MOE/cEt gapmer CTTGGTGAATCTTTATTAAAC, sugar eeeekkddddddddddeeeee, linkages zsoooszzsssssszsoosz (e[5mC][ms]eT*eTeGkGkT*dG[ms]dA[ms]dA*dT*d[5mC]*dT*dT*dT*dA[ms]dT*eTeAeA*eA[ms]e[5mC]) [compound 1809744] | 19 | 11 | – | –
1652914: 5-10-5 MOE gapmer GGTGAATCTTTATTAAACTA, linkages soooszzssssssszooss (antisense eG*eGeTeGeA*dA[ms]dT[ms]d[5mC]*dT*dT*dT*dA*dT*dT*dA[ms]eAeAe[5mC]*eT*eA) [compound 1652914] | 108 | 43 | – | –
1652898: 6-10-4 MOE gapmer GGTGAATCTTTATTAAACTA, linkages sooooossssssssssoss (antisense eG*eGeTeGeAeAdT*d[5mC]*dT*dT*dT*dA*dT*dT*dA*dA*eAe[5mC]*eT*eA) [compound 1652898] | 56 | 20 | – | –
1652918: 6-10-4 MOE gapmer GGTGAATCTTTATTAAACTA, linkages sooooozzzsssssssoss (antisense eG*eGeTeGeAeAdT[ms]d[5mC][ms]dT[ms]dT*dT*dA*dT*dT*dA*dA*eAe[5mC]*eT*eA) [compound 1652918] | 91 | 47 | – | –
1652909: 5-10-5 MOE gapmer GGTGAATCTTTATTAAACTA, linkages soooszzzzssssssooss (antisense eG*eGeTeGeA*dA[ms]dT[ms]d[5mC][ms]dT[ms]dT*dT*dA*dT*dT*dA*eAeAe[5mC]*eT*eA) [compound 1652909] | 55 | 23 | – | –
1693139: 6-10-4 MOE gapmer ACTTGGTGAATCTTTATTAA, linkages ssssssszzzssssszsss (eA*e[5mC]*eT*eT*eG*eG*dT*dG[ms]dA[ms]dA[ms]dT*d[5mC]*dT*dT*dT*dA[ms]eT*eT*eA*eA) [compound 1693139] | – | – | 92 | 97
1693078: 6-10-4 MOE gapmer TTGGTGAATCTTTATTAAAC, linkages ssossszzszssszssoss (eT*eT*eGeG*eT*eG*dA[ms]dA[ms]dT*d[5mC][ms]dT*dT*dT*dA[ms]dT*dT*eAeA*eA*e[5mC]) [compound 1693078] | – | – | 98 | 99
1693046: 5-10-5 MOE gapmer CTTGGTGAATCTTTATTAAA, linkages ssssszzzzzsssssssss (antisense e[5mC]*eT*eT*eG*eG*dT[ms]dG[ms]dA[ms]dA[ms]dT[ms]d[5mC]*dT*dT*dT*dA*eT*eT*eA*eA*eA) [compound 1693046] | – | – | 106 | 80
1693057: 5-10-5 MOE gapmer TTGGTGAATCTTTATTAAAC, linkages ssssszzzssssszsosss (antisense eT*eT*eG*eG*eT*dG[ms]dA[ms]dA[ms]dT*d[5mC]*dT*dT*dT*dA[ms]dT*eTeA*eA*eA*e[5mC]) [compound 1693057] | – | – | 125 | 101
1693079: 6-10-4 MOE gapmer TTGGTGAATCTTTATTAAAC, linkages sssosszzszssszssoss (eT*eT*eG*eGeT*eG*dA[ms]dA[ms]dT*d[5mC][ms]dT*dT*dT*dA[ms]dT*dT*eAeA*eA*e[5mC]) [compound 1693079] | – | – | 93 | 106
1693140: 6-10-4 MOE gapmer ACTTGGTGAATCTTTATTAA, linkages sssssoszzzssssszoss (eA*e[5mC]*eT*eT*eG*eGdT*dG[ms]dA[ms]dA[ms]dT*d[5mC]*dT*dT*dT*dA[ms]eTeT*eA*eA) [compound 1693140] | – | – | 109 | 68
1693056: 5-10-5 MOE gapmer TTGGTGAATCTTTATTAAAC, linkages ssosszzzssssszsosss (antisense eT*eT*eGeG*eT*dG[ms]dA[ms]dA[ms]dT*d[5mC]*dT*dT*dT*dA[ms]dT*eTeA*eA*eA*e[5mC]) [compound 1693056] | – | – | 105 | 118
1693104: 6-10-4 MOE gapmer CTTGGTGAATCTTTATTAAA, linkages ssossszzzssssszssss (e[5mC]*eT*eTeG*eG*eT*dG[ms]dA[ms]dA[ms]dT*d[5mC]*dT*dT*dT*dA[ms]dT*eT*eA*eA*eA) [compound 1693104] | – | – | 129 | 52
1693143: 6-10-4 MOE gapmer ACTTGGTGAATCTTTATTAA, linkages ssossszzzssssszsss (as printed) (sugars from the 5' end e6 d10 e4, all C 5-methyl, backbone not given here; further chemistry not fully specified) [compound 1693143] | – | – | 76 | 64
1693059: 5-10-5 MOE gapmer TTGGTGAATCTTTATTAAAC, linkages ssssszzzssssszsssss (antisense eT*eT*eG*eG*eT*dG[ms]dA[ms]dA[ms]dT*d[5mC]*dT*dT*dT*dA[ms]dT*eT*eA*eA*eA*e[5mC]) [compound 1693059] | – | – | 89 | 98
1693066: 5-10-5 MOE gapmer ACTTGGTGAATCTTTATTAA, linkages sssssssszzsssssooss (antisense eA*e[5mC]*eT*eT*eG*dG*dT*dG*dA[ms]dA[ms]dT*d[5mC]*dT*dT*dT*eAeTeT*eA*eA) [compound 1693066] | – | – | 88 | 73
1693106: 6-10-4 MOE gapmer CTTGGTGAATCTTTATTAAA, linkages sssssszzzssssszssss (e[5mC]*eT*eT*eG*eG*eT*dG[ms]dA[ms]dA[ms]dT*d[5mC]*dT*dT*dT*dA[ms]dT*eT*eA*eA*eA) [compound 1693106] | – | – | 78 | 71
1693070: 5-10-5 MOE gapmer ACTTGGTGAATCTTTATTAA, linkages ssssssszzzszsssosss (antisense eA*e[5mC]*eT*eT*eG*dG*dT*dG[ms]dA[ms]dA[ms]dT*d[5mC][ms]dT*dT*dT*eAeT*eT*eA*eA) [compound 1693070] | – | – | 86 | 76
1693067: 5-10-5 MOE gapmer ACTTGGTGAATCTTTATTAA, linkages ssosssszzzszsssssss (antisense eA*e[5mC]*eTeT*eG*dG*dT*dG[ms]dA[ms]dA[ms]dT*d[5mC][ms]dT*dT*dT*eA*eT*eT*eA*eA) [compound 1693067] | – | – | 97 | 162
1693081: 6-10-4 MOE gapmer TTGGTGAATCTTTATTAAAC, linkages sssssozzszssszssoss (eT*eT*eG*eG*eT*eGdA[ms]dA[ms]dT*d[5mC][ms]dT*dT*dT*dA[ms]dT*dT*eAeA*eA*e[5mC]) [compound 1693081] | – | – | 91 | 100
1693064: 5-10-5 MOE gapmer ACTTGGTGAATCTTTATTAA, linkages soossssszzsssssosss (antisense eA*e[5mC]eTeT*eG*dG*dT*dG*dA[ms]dA[ms]dT*d[5mC]*dT*dT*dT*eAeT*eT*eA*eA) [compound 1693064] | – | – | 83 | 48
1693055: 5-10-5 MOE gapmer TTGGTGAATCTTTATTAAAC, linkages sososzzzsssssssosss (antisense eT*eTeG*eGeT*dG[ms]dA[ms]dA[ms]dT*d[5mC]*dT*dT*dT*dA*dT*eTeA*eA*eA*e[5mC]) [compound 1693055] | – | – | 95 | 67
1693141: 6-10-4 MOE gapmer ACTTGGTGAATCTTTATTAA, linkages ssssooszzzssssszsss (eA*e[5mC]*eT*eT*eGeGdT*dG[ms]dA[ms]dA[ms]dT*d[5mC]*dT*dT*dT*dA[ms]eT*eT*eA*eA) [compound 1693141] | – | – | 82 | 66
